# Assay results from patent US6420341B1, “Sulphur derivatives with a retroamide bond as endothelin-converting enzyme inhibitors” (Aventis Pharma S.A., priority 1996, dated 2002).
# Molecular target: T1, endothelin-converting enzyme (ECE) (Homo sapiens, UniProt P42892)
# T1 sequence (P42892 1-770): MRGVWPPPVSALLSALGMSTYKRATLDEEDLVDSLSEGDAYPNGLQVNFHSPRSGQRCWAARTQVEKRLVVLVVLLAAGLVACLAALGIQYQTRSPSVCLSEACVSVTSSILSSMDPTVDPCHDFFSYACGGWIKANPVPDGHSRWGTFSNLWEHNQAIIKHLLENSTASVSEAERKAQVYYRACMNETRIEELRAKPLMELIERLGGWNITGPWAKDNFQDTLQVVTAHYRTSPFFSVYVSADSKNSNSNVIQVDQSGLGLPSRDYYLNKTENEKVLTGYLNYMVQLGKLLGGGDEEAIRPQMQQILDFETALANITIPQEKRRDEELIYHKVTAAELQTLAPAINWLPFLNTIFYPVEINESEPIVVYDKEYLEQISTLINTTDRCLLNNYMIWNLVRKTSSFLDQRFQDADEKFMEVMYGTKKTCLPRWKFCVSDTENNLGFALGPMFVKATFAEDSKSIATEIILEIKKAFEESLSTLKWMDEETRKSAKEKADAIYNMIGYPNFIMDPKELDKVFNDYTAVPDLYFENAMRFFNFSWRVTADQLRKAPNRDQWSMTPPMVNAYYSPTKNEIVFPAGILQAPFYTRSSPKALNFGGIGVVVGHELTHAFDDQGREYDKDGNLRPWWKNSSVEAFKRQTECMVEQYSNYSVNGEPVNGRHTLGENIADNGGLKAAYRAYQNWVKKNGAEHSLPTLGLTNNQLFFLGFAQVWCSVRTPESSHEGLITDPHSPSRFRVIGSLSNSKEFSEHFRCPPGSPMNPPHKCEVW
# Experiment: Determination of the inhibitory activity of the endothelin-converting enzyme (ECE), cleavage of (2,3-3H)propionyl-b-ET-1(19-35)
# Type: biochemical
# Conditions: purified ECE, pre-incubation 30 minutes at 37° C., Tris maleate buffer pH=6.5, incubation one hour at 37° C.; read-out: IC50 (concentration which causes a 50% inhibition of ECE)
# Excerpt: A test is used, in which the product (2,3-^3H)propionyl-b-ET-1(19-35) prepared as indicated below in a) is cleaved by ECE into the product (2,3-^3H)propionyl-b-ET-1(19-21) in the presence of product P of which the inhibitory activity of ECE one wishes to determine as indicated below in b): the inhibitory activity of ECE of the product P will therefore be accordingly as high as the quantity of product of formula (II) formed, determined by counting the radioactivity, will be low. The operation is carried out as follows:
# 10 μl of ECE i.e. 1 to 2 μg of purified ECE are pre-incubated for 30 minutes at 37° C., in 400 μl of a 50 mM Tris maleate buffer pH=6.5, 20 μl of 5M sodium chloride and 5 μl of product P the inhibitory activity of which one wishes to test, in solution at different concentrations (comprised between […]) (i.e. final concentrations in product P of 10 nM to 1 mM).
# The reaction is initiated by the addition of 10 μl of (2,3-^3H)propionyl-b-ET-1(19-35) prepared as indicated above in a), at a final concentration of 1.8.10^−12M.
# After incubation for one hour at 37° C., the reaction is stopped by the addition of 600 μl of ethyl acetate and the (2,3-^3H)propionyl-b-ET-1(19-21) is extracted by mechanical agitation for 2 minutes.
# 300 μl of the organic phase is removed, 5 ml of liquid scintillator is added and the radioactivity is counted for 1 minute with a liquid scintillation counter.
# Each measurement is carried out in triplicate except for the ECE control (control enzyme, without the product the ECE inhibitory activity of which one wishes to test), for which the measurement is carried out six times.
# The percentage inhibition is calculated by establishing the relationship: [formula]
# The blank is carried out starting with the solution obtained without enzyme.
# From the cpm's obtained and by plotting the graph of the percentage of inhibition relative to the concentration of inhibitor (nM), the IC50 is calculated which therefore corresponds to the concentration which causes a 50% inhibition of ECE.
row,IC50 [nM],SMILES
1,30,"N#Cc1ccccc1-c1ccc(CC(C(=O)O)C(=O)N[C@@H](CS)Cc2ccccc2)cc1 (mixture of isomers) [Example 4, 2′-cyano-alpha-[[[1-(mercaptomethyl)-2-phenylethyl]amino]carbonyl]-(1,1′-biphenyl)-4-propanoic acid]"
2,150,"N#Cc1ccccc1-c1ccc(CC(C(=O)O)C(=O)NC(CS)Cc2ccc(OS(=O)(=O)C(F)(F)F)cc2)cc1 (stereo not drawn) [Example 10, 2′-Cyano-alpha-[[[1-(mercaptomethyl) 2-(paratrifluoromethylsulphonyloxy)phenylethyl]amino]carbonyl](1,1′-biphenyl) 4-propanoic acid]"
3,220,O=C(CCCCCCCCCCOc1ccccc1)N[C@@H](CS)Cc1ccccc1 [Example 6]
